In patent publication US6495358B1, “Sulfamide and bis-sulfamide amino acid derivatives as inhibitors of proteolytic enzymes” (Wichita State University, priority 2000, dated 2002):

Experiments:
[1] = target: T1, human leukocyte elastase (HLE) (Homo sapiens, UniProt P08246); assay: Human leukocyte elastase (HLE) inhibition assay, Dixon plot; type: biochemical; conditions: competitive inhibition conditions, substrate MeOSuc-AAPV-pNA, 0.1 M HEPES pH 7.25, 25° C., read-out: K1 or % Inhibition (Ki), Elastase (HLE)
T1 sequence (P08246 30-247 limits assumed): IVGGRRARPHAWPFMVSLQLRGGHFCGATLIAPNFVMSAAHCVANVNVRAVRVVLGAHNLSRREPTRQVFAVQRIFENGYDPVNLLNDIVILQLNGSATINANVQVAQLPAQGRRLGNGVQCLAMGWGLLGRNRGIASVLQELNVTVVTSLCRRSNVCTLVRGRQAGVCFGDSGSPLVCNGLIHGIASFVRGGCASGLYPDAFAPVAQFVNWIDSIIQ
Text: Screening of compounds for protease activity is known in the art. The human leukocyte elastase (HLE), cathepsin G (Cat G) and proteinase 3 (PR3) assays have each been described in detail; see, Groutas et al. Biochemistry 36:4739 (1997). Chymase assay has also been previously reported; see, Schechter, et al., J. Biol. Chem. 268:23626 (1993).
The substrates and buffers used in the assay inhibition studies with human leukocyte elastase (HLE), cathepsin G (Cat G), proteinase 3 (PR3) (Groutas, W. C., et al., Biochemistry 36:4739 (1997) and chymase (Groutas, W. C. et al., Bioorg. Med. Chem. Lett. 9:2199 (1999) were as follows: HLE, MeOSuc-AAPV-pNA, 0.1 M HEPES buffer, pH, 7.25 in 1-5% DMSO; Cat G, Suc-AAPF-pNA, 0.1 M HEPES buffer, pH 7.5; PR3, Boc-L-Ala p-mitrophenyl ester, 0.1 M phosphate buffer, pH 6.5; chymase, Suc-AAPF-pNA, 0.45 Tris buffer, 1.8 M Na Cl, pH 8.03 and 2% DMSO. All assays were carried out at 25° C. and for all enzymes the absorbance was monitored at 410 nm, except PR 3 (348 nm).
The inhibitory activity of compound 15 toward HLE was determined under competitive inhibition conditions. (Dixon, M. Biochem. J. 20 55:70-71 (1953)). Human leukocyte elastase (HLE assay has been described in detail; see, Groutas et al. Biochemistry 36:4739 (1997).

Thermolysin = target: T2, Thermolysin (Bacillus thermoproteolyticus, UniProt P00800); assay: Thermolysin inhibition assay with N-[3-[2-Furyl]acryloyl]-Gly-L-Leu-NH2 as substrate; type: biochemical; conditions: 0.1 M Tris-HCl pH 7.2, 25° C.
T2 sequence (P00800 233-548): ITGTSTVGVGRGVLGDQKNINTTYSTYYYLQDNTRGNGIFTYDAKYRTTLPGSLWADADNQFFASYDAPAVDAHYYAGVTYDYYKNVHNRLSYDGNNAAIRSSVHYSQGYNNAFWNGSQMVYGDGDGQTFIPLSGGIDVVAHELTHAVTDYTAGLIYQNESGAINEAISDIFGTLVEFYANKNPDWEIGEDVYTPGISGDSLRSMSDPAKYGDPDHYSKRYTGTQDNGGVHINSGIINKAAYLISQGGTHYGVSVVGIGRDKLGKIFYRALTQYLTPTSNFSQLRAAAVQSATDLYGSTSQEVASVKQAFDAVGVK
Protocol: Thermolysin activity with or without inhibitor was measured using N-[3-[2-Furyl]acryloyl]-Gly-L-Leu-NH2 as substrate (Walsh, K. A. et al. Methods Enzymol.34:435 (1974; Nishino, N. et al. Biochemistry 17:2846 (1978). The substrate solution in 0.1 M Tris-HCl buffer (pH 7.2) containing 2% DMF was added to thermolysin in 0.1 M Tris-HCl, ph 7.2, containing 10 mM CaCl2 and the decrease in absorbance at 345 nm was monitored using a Hewlett-Packard diode array UV/VIS spectrophotometer at 25° C. Percent inhibition and/or K1 values were determined from Dixon plots (Dixon, M. Biochem, J. 55:70 (1953) at two different substrate concentrations.
The inhibitory activity of compound 20 and 30 toward thermolysin was determined under competitive inhibition conditions. Thermolysin activity with or without inhibitor was measured using N-[3-[2-Furyl]acryloyl]-Gly-L-Leu-NH2 as substrate (Walsh, K. A. et al. Methods Enzymol.34:435 (1974); Nishino, N. et al. Biochemistry 17:2846 (1978)).

SMILES: CC(C)CC(C=O)N(Cc1ccccc1)S(=O)(=O)N(C)C (stereo not drawn) [Compound 15, N-benzyl-N-(1-formyl-3-methylbutyl)-N′,N′-dimethylfulfamide]
- Ki [1]: 21 µM

SMILES: CN(C)S(=O)(=O)N(CC(=O)NO)Cc1ccccc1 [Compound 20, N^2-benzyl-N^2-[(dimethylamino)sulfonyl]-N^1-hydroxyglycinabmide]
- Ki (Thermolysin; competitive inhibition conditions, Dixon plots at two substrate concentrations, read-out: K1 or % Inhibition (Ki), Thermolysin): 1.2 µM

SMILES: CC(C)C[C@@H](C(=O)NO)N(Cc1ccccc1)S(N)(=O)=O [Compound 40]
- K1 or % Inhibition (% inhibition), Thermolysin (Thermolysin; inhibitor concentration not given): 26% inhibition
